Values quoted from earlier work, collected in US20050070514A1, “Therapies for treating respiratory diseases” (priority 2001, published 2005).

Settings: developed as an antidepressant

SMILES: COc1ccc(C2CNC(=O)C2)cc1OC1CCCC1 (stereo not shown) [rolipram]
- side effects in clinical studies: has psychotropic activity and produces gastrointestinal effects, e.g., pyrosis, nausea and emesis
